# Key:
# Ruminococcaceae family [1] = test: Gut microbiota of mCRPC patients stratified by ADT regimen (whole genome metagenome); format: in vivo, human; conditions: Abiraterone vs Enzalutamide
# Protocol: FIG. 16—Different ADT regimens alter gut microbiota composition. (A) Pie chart representing the number of CRPC patients receiving Enzalutamide, Abiraterone or other treatment (Apalutamide, Docetaxel, Cabazitaxel or no active treatment) at the moment of the rectal swab. […] (C) Patients treated with enzalutamide (n=14) and apalutamide (n=1) were stratified according to the circulating testosterone level (≤10 ng/dL or >10 ng/dL). Pie charts show, within each group, the fraction of patients having Ruminococcus DSM_10044 in their gut microbiota.
# Collection of patient feces. Patients with hormone-sensitive (HSPC) and metastatic CRPC consented to the analysis of their rectal swabs. […]
# Whole genome metagenome analysis of patient feces. […] DNA was analyzed by Qubit (Invitrogen, Thermo Fisher Scientific, Waltham, USA) and integrity was checked by agarose gel electrophoresis.
# Illumina TruSeq DNA libraries were prepared using the TruSeq nano DNA Library preparation kit (Illumina, San Diego, USA) according to the manufacturer's instructions. […] The final libraries were quantified using a Quant-iT™ PicoGreen™ ds DNA Assay Kit (Thermo Fisher Scientific, Waltham, USA) and equimolarly pooled prior to sequencing. […] Quality of the reads in fastq format was checked with the software FastQC (version 0.11.8). […]
# TRAMP-C1 cells = test: TRAMP-C1 allograft tumor model, castrated (CTX) or sham-operated mice; conditions: high dose of testosterone vs vehicle
# Protocol: C57BL6/N mice were challenged s.c. with 2.5×10^6 TRAMP-C1 cells. When tumors became palpable, mice were either castrated (CTX) or sham-operated (sham). After surgery, mice were either administered normal drinking water or antibiotic cocktail (ABX: neomycin 1 g/L, ampicillin 1 g/L, vancomycin 0.5 g/L and metronidazole 2 mg/mouse every other day). (A) Tumor volume (Sham n=14, Sham ABX n=4, CTX n=20, CTX ABX n=10) and (B) survival curve. […] Statistical analysis was performed with: (A), (F), (G) two-way ANOVA and Sidak's multiple comparison test; (B), (H), (1) Mantel Cox test; (C), (E), (K) unpaired two-sided Student's t-test. NS, not significant; *P<0.05; **P<0.01; ***P<0.001; ****P<0.0001.
# Mice. […] 4 weeks old male C57BL6/N and NOD/SCID mice were purchased from Charles River (Calco, Italy) and acclimatized for four weeks before experimentation.
# Ruminococcaceae family [2] = test: Gut microbiota composition in TRAMP-C1 mice under bipolar androgen therapy; format: in vivo, mouse; conditions: high dose of testosterone vs vehicle
# Protocol: FIG. 7—Pten^pc−/− and LNCaP castrated mice harbor a peculiar gut microbiota. […] (E) qPCR showing the abundance of R. gnavus and B. acidifaciens in feces of LNCaP mice that were either sham-operated (n=4), CTX (n=6), CTX+enzalutamide (n=6) at 85 days. TRAMP-C1 mouse models were treated with either vehicle or high dose of testosterone as per bipolar androgen therapy. (F) Tumor volume (vehicle n=5, high testosterone n=5). (G) Serum testosterone levels (vehicle n=5, high-testosterone n=5). (H) Heatmap representing differentially abundant bacteria (FDR<0.05) between mice injected with vehicle or high testosterone-dose (vehicle n=4, high-testosterone n=4). […]
# Pten^pc−/− Murine 16S rDNA sequencing analysis and bacteria qPCR. […] DNA was extracted using a GNOME DNA isolation kit (MP) following the protocol described in (J. P. Furet et al., Comparative assessment of human and farm animal faecal microbiota using real-time quantitative PCR. FEMS Microbiol Ecol 68, 351-362 (2009)). […] In short, DNA concentration and quality were evaluated using NanoDrop 2000. […] PCR products were visualized on an agarose gel then quantified by qPCR using the KAPA Library Quantification Kit (KAPA Biosystems, KK4824). […] The pooled library was purified using the Agencourt AMPure XP kit (Beckman Coulter, A63880) and quantified with the same method prior to sequence using paired-end (read length=300 bases) on Illumina MiSeq. […]
Compound,expansion of Ruminococcaceae family in gut microbiota (Ruminococcaceae family [1]),tumor volume (TRAMP-C1 cells),abundance of Ruminococcaceae family (Ruminococcaceae family [2])
CNC(=O)c1ccc(N2C(=S)N(c3ccc(C#N)c(C(F)(F)F)c3)C(=O)C2(C)C)cc1F [Enzalutamide],presented an expansion of Ruminococcaceae family,–,–
"C[C@]12CC[C@H]3[C@@H](CCC4=CC(=O)CC[C@@]43C)[C@@H]1CC[C@@H]2O [bipolar androgen therapy, Testosterone]",–,promoted tumor inhibition,decreased the abundance of Ruminococcaceae family

# — patent US20250268958A1, “COMMENSAL BACTERIA PROMOTE ENDOCRINE-RESISTANCE IN PROSTATE CANCER VIA ANDROGEN BIOSYNTHESIS” (FONDAZIONE PER L'ISTITUTO ONCOLOGICO DI RICERCA (IOR), priority 2021, published 2025)
